In brackets after ≈: the same amount, converted by molar mass. Entries after “also recorded” stand apart in the source; their conditions may differ.
Experiments:
several human cell lines = assay: Cytotoxicity / growth inhibition of several human cell lines; format: cell-based; settings: in words
Solubility properties = format: physicochemical; settings: relative to the natural product; in words
gram positive = assay: Gram positive antimicrobial activity; format: cell-based; settings: in words
HL-60 = assay: Inhibition of cell growth, HL-60; format: cell-based, human
Procedure: (§1) Inhibition of Cell Growth and Macromolecule Biosynthesis in -Several
(§2) Cancerous Human Cell Lines by Hormothamnione (1)
(§3) ^a ID50 is the drug concentration required to inhibit cell growt
(§4) to 50% of control levels.
(§5) Macromolecule biosynthesis in the presence of hormothamnion was measured via radioactive precursor incorporation studies using HL-60 and KB cell lines.

DNA synthesis, HL-60 = assay: Inhibition of DNA biosynthesis in HL-60 (3H-thymidine incorporation); format: cell-based; settings: Homo sapiens, 3H-thymidine pulse label, read-out: ID50 DNA
Procedure: (§6) ^b The percentages of macromolecule biosynthesis inhibition were
(§7) calculated from the specific activities of incorporated precursors (c-e)
(§8) into 10^6 cells in drug treated as versus control cells. ID50
(§9) values were obtained by plotting the logarithmic drug concentrations
(§10) against the percentage inhibition of macromolecule biosynthesis.
(§11) ^c Exponentially growing cells pulse labeled with 1 μCi of ^3
(§12) Hthymidine (16.6 Ci/mmole) per ml of cell suspension.
as §5

RNA synthesis, KB = assay: Inhibition of RNA biosynthesis in KB (5-3H-uridine incorporation); format: cell-based; settings: Homo sapiens, 5-3H-uridine pulse label, read-out: ID50 RNA
Procedure: as §6, §7, §8, §9, §10
(§13) ^d Exponentially growing cells pulse labeled with 2 μCi [5^3
(§14) Huridine (28 Ci/mmole) per ml of cell suspension.
as §5

Protein synthesis, KB = assay: Inhibition of protein biosynthesis in KB (3H-L-leucine incorporation); format: cell-based; settings: Homo sapiens, 3H-L-leucine pulse label, read-out: ID50 Protein
Procedure: as §6, §7, §8, §9, §10
(§15) ^e Exponentially growing cells pulse labeled with 1 μCi of ^3
(§16) HL-leucine (130 Ci/mmole) per ml of cell suspension.
as §5

RNA synthesis = assay: Macromolecule biosynthesis: inhibition of RNA synthesis (mode of action); format: cell-based, human; settings: in words
Procedure: as §6, §7, §8, §9, §10, §13, §14, §5

P-388 = assay: Inhibition of cell growth, P-388; format: cell-based
Procedure: as §1, §2, §3, §4, §5

DNA synthesis, KB = assay: Inhibition of DNA biosynthesis in KB (3H-thymidine incorporation); format: cell-based; settings: Homo sapiens, 3H-thymidine pulse label, read-out: ID50 DNA
Procedure: as §6, §7, §8, §9, §10, §11, §12, §5

Bacillus subtilus = assay: Paper disc-agar plate antimicrobial test; format: cell-based
Protein synthesis, HL-60 = assay: Inhibition of protein biosynthesis in HL-60 (3H-L-leucine incorporation); format: cell-based; settings: Homo sapiens, 3H-L-leucine pulse label, read-out: ID50 Protein
Procedure: as §6, §7, §8, §9, §10, §15, §16, §5

RNA synthesis, HL-60 = assay: Inhibition of RNA biosynthesis in HL-60 (5-3H-uridine incorporation); format: cell-based; settings: Homo sapiens, 5-3H-uridine pulse label, read-out: ID50 RNA
Procedure: as §6, §7, §8, §9, §10, §13, §14, §5

## COc1cc(O)c2c(=O)c(C)c(/C=C/c3cc(O)cc(O)c3)oc2c1OC [compound of formula (3)]
Several human cell lines
  inhibited the growth of several human cell lines: inhibited the growth of several human cell lines
Several human cell lines; relative to hormothamnion
  effect on growth compared with hormothamnion: less than observed with hormothamnion

## COc1c(OC)c(OC(C)=O)c2c(=O)c(C)c(/C=C/c3cc(OC(C)=O)cc(OC(C)=O)c3)oc2c1OC [derivative (2)]
Solubility properties
  solubility properties: more favorable

## COc1c(OC)c(O)c2c(=O)c(C)c(/C=C/c3cc(O)cc(O)c3)oc2c1OC [hormothamnion]
Gram positive
  gram positive antimicrobial activity: minimal
Several human cell lines
  cytotoxin to several human cancerous cell lines: potent cytotoxin
HL-60; Homo sapiens, read-out: ID50 Cell Growth
  IC50: 0.0001 µg/mL (≈ 0.00025 µM)
HL-60; in words
  cytotoxic agent to HL-60 human promyelocytic leukemia: potent
DNA synthesis, HL-60
  IC50: 0.3 µg/mL (≈ 0.749 µM)
RNA synthesis, KB
  IC50: 0.14 µg/mL (≈ 0.35 µM)
Protein synthesis, KB
  IC50: > 0.5 µg/mL
RNA synthesis
  inhibition of RNA synthesis (mode of cytotoxic action): appears to operate via inhibition of RNA synthesis; also recorded: A major mode of cytotoxic action of hormothamnion appears to be by inhibition of RNA synthesis
RNA synthesis; listed as Hormothamnion
  inhibition of RNA synthesis (mode of cytotoxic action): selective inhibition of RNA synthesis
P-388; P388, P-388, read-out: ID50 Cell Growth
  IC50: 0.0046 µg/mL (≈ 0.0115 µM)
P-388; in words
  cytotoxic agent to P388 lymphocytic leukemia: potent
DNA synthesis, KB
  IC50: 0.53 µg/mL (≈ 1.32 µM)
Bacillus subtilus; 25 μg per 6 mm paper disc
  zone of inhibition at 25 µg/disc: 8 mm
Bacillus subtilus; 100 μg per 6 mm paper disc
  zone of inhibition at 100 µg/disc: 10 mm
Protein synthesis, HL-60
  IC50: > 0.5 µg/mL
RNA synthesis, HL-60
  IC50: 0.001 µg/mL (≈ 0.0025 µM)

From patent US4935529A, “Cytoxic substances from the marine cyanophyte hormothamnion enteromorphoides grunow” (State of Oregon acting by and through the Oregon State …, priority 1989, dated 1990)
